Entries after “also recorded” stand apart in the source; their conditions may differ.

Data set [1] deals with orthotopic ID8-fLuc (HRP) ovarian cancer tumors. Briefly: Overall survival of ovarian cancer bearing mice. The data set is classed as in vivo. The protocol:
(§1) Murine experiments were approved by the KU Leuven ethical committee (P082/2021). NIH guidelines for the Care and Use of Laboratory Animals were followed along with the 2010/62/EU directive and the ARRIVE (Animal Research: Reporting of In Vivo Research: Reporting of In Vivo Experiments) guidelines. Syngeneic ID8-fluc cells were harvested using 0.05% Trypsin-EDTA and inoculated (5×10^6 cells in 100 μL DPBS) intraperitoneally in female C57BL/6 mice (six- to eight-week-old, obtained from Envigo (Horst, The Netherlands)), leading to the development of a stage III-IV ovarian cancer model.
Seven days post inoculation, treatment was initiated. Mice were divided into four groups receiving either, sham-heat and vehicle (n=8), sham-heat and olaparib (n=8), TTFields and vehicle (n=7) or TTFields and olaparib (n=11). TTFields treatment (200 kHz) was administered continuously using the in vivo system (Novocure, Israel) by applying electrode arrays to the shaven abdomen of the mice as previously described. Sham-heat used analogous non-therapeutic arrays. Olaparib (MedKoo Biosciences, USA) was dissolved in a vehicle of 10% DMSO, 50% PEG300 and 40% DPBS and administered at a concentration of 50 mg/kg/day through daily oral gavage. Overall, therapeutic interventions lasted for four weeks, given in four cycles of five consecutive treatment days, followed by two days without treatment.
Mice were followed up and weighed daily once ascites development started as indicated by the appearance of abdominal distention. Mice were sacrificed when their body weight reached ≥32 grams as a surrogate endpoint for survival.

Another data set relates to G2/M cell cycle arrest. The experiment in a line: Cell cycle analysis (7-AAD, flow cytometer). The data set is classed as cell-based, human. The protocol: For DNA damage and cell cycle examination, the following drug concentrations were selected: For A2780—6 μM carboplatin, 1 μM olaparib, and 0.5 μM niraparib; For OVCAR-3-16 μM carboplatin, 0.5 μM olaparib, and 0.8 μM niraparib; For A2780cis—36 μM carboplatin, 10 μM olaparib, and 1.5 μM niraparib. Treated cells were fixed with 70% ice-cold ethanol for 30 min, pelleted, washed, and stained for 30 min at 37° C. in phosphate buffered saline (PBS) containing 1% FBS 5 μg/ml 7-AAD (BioLegend), 200 μg/ml RNase, 1 mM EDTA and 0.1% Triton X-100. Data acquisition (at 665/30 nm) and analysis were done on the Cytek Northern Lights flow cytometer and the FlowJo 10.8.1 software (BD Biosciences), respectively.

Data set [2] has as its system orthotopic ID8-fLuc (HRP) ovarian cancer tumors. Briefly: Tumor load by bioluminescent imaging in ovarian cancer bearing mice. The class given is in vivo. The method, then:
as §1
Seven days post inoculation, treatment was initiated. Mice were divided into four groups receiving either, sham-heat and vehicle (n=8), sham-heat and olaparib (n=8), TTFields and vehicle (n=7) or TTFields and olaparib (n=11). TTFields treatment (200 kHz) was administered continuously using the in vivo system (Novocure, Israel) by applying electrode arrays to the shaven abdomen of the mice as previously described. […]
Tumor load was observed through bioluminescent imaging analysis before (day 5) and after (day 35) treatment administration. […] Ten minutes post injection, photon flux was measured using the IVIS-spectrum preclinical In Vivo Imaging System (Perkin-Elmer, USA). Normalized photon flux was calculated by subtracting the photon flux before treatment from the paired photon flux after treatment per mouse.

For a further data set, the system named is A2780cis cells. The experiment in a line: Apoptosis, Annexin V/7-AAD staining, flow cytometer. The data set is classed as cell-based, human. As to conditions: TTFields applied with drug. The method, then:
(§2) Apoptosis was also examined. Treated cells were double-stained with FITC-conjugated annexin V (AnnV) and 7-aminoactinomycin D (7AAD), and data acquisition was performed with a flow cytometer.
Treated cells were double-stained with FITC-conjugated annexin V (AnnV) and 7-aminoactinomycin D (7AAD), and data acquisition was performed with a flow cytometer.
(§3) Treated cells were stained with FITC-conjugated Annexin V (AnnV) and 7-Aminoactinomycin D (7-AAD) using a commercial kit (BioLegend, San Diego, CA, USA), according to the manufacturer's instruction. Data acquisition and analysis were done on the Cytek Northern Lights flow cytometer

Data set [3] relates to OVCAR-3 cells. The protocol:
Cells were seeded on coverslip (22 mm diameter; 20×10^3 cells/coverslip for A2780 and A2780cis; 40×10^3 cells/coverslip for OVCAR-3). After overnight incubation, the coverslips were transferred into in vitro dishes containing 2 ml of media. TTFields at a frequency of 200 kHz (and intensity of 1 V/cm RMS) were applied to the cells for 72 hr using the INOVITRO system (Novocure, Haifa, Israel).
For efficacy outcomes (cell count, overall effect, and apoptosis), various concentrations of carboplatin (MCE MedChemExpress, HY-17393), olaparib (Cayman Chemical, 10621), or niraparib (Cayman Chemical, 20842) were applied, with or without TTFields.
Cell count was examined following treatment using Cytek Northern Lights flow cytometer (Cytek Biosciences, USA).
Treated cells were harvested, re-plated in 6-well plates (500 cells/well for A2780 and A2780cis; 1000 for cells/well OVCAR-3), and grown for 7 (A2780 and A2780cis) or 21 (OVCAR-3) days. Colonies were stained with 0.5% crystal violet, quantified with ImageJ, and expressed as percentages relative to control. Overall effect was calculated by multiplying colony formation with the corresponding cell count.
The surviving fraction predicted for an additive effect between TTFields and drug was calculated per the various drug concentrations by multiplying the actual measured surviving fractions for the individual treatments one by the other (SFcalculated additive=SFTTFields×SFdrug; SF are expressed as probability). Based on the calculated values, a trendline was determined. Additivity, synergy, or antagonism was defined when the calculated additive trendline overlapped, was above, or was below the actual measured line for TTFields+drug, respectively.
For quantifying the magnitude of TTFields-drug interaction, interaction index (Ii) values were calculated by the Bliss independence method using mortality values (Mx=1−SFx). Per the various drug concentrations, mortality predicted for an additive effect between TTFields and drug (Mcalculated additive=MTTFields+Mdrug−MTTFields×Mdrug) was divided by the actual measured mortality for TTFields+drug. Additivity was determined when the 95% confidence interval (CI) overlapped 1, synergy when 95% CI<1, and antagonism when 95% CI>1. Lower Ii values were considered indicative of higher synergy levels.

A further data set deals with A2780 cells. The experiment in a line: Apoptosis, Annexin V/7-AAD staining, flow cytometer. The data set is classed as cell-based, human. As to conditions: TTFields applied with drug. The method, then: (§4) Apoptosis: Treated cells were double-stained with FITC-conjugated annexin V (AnnV) and 7-aminoactinomycin D (7AAD), and data acquisition was performed with a flow cytometer.
as §2, §3
A general note: A flow cytometer gives signals particle by particle.

Data set [4] has as its system OVCAR-3 cells. The description is as above. The class given is cell-based, human. The settings on record: TTFields applied with drug. The protocol:
as §4, §3

Turning to `O=C(c1cc(Cc2n[nH]c(=O)c3ccccc23)ccc1F)N1CCN(C(=O)C2CC2)CC1` [olaparib], the “median overall survival, TTFields plus olaparib” value in data set [1] (TTFields (200 kHz) plus olaparib 50 mg/kg/day, control 62 days) was found to be 70 days. Further, in data set [1] (monotherapy, control 62 days), the “median overall survival, monotherapy” value is recorded as 64.5 days. For the same compound, the “survival compared to control mice, monotherapy” value in data set [1] (olaparib only, p=0.0401) was “survival benefit”. Further, the “survival, TTFields plus olaparib compared to control and monotherapies” value in data set [1] (p=0.0003 vs control, p=0.0003 vs olaparib, p=0.0130 vs TTFields) is listed as “significantly prolonged”. The “cell cycle arrest, drug alone” value with G2/M cell cycle arrest is given as “induced G2/M arrest”. In addition, the “tumor volumes lower compared to controls and to olaparib only treated mice” value in data set [2] (TTFields (200 kHz) plus olaparib 50 mg/kg/day oral gavage, after 4 weeks, p=0.0183 vs controls, p=0.0066 vs olaparib only) was “about 80%”. Besides, in data set [2] (TTFields plus olaparib 50 mg/kg/day), the “tumor growth relative to olaparib alone and to control, TTFields and olaparib together” value was “significant reduction”. Also, the “effect of TTFields on the apoptotic effect / apoptotic cell fraction” value is reported as “elevation” in the data set on A2780cis cells, “enhanced; also recorded: elevation” in the data set on A2780 cells and “enhanced; also recorded: elevation” with OVCAR-3 cells [4]. Besides, the “type of TTFields-drug interaction (measured vs calculated additive curve)” value in the data set with OVCAR-3 cells [3] (HRD cells, TTFields 200 kHz, 1 V/cm RMS, 72 h) is “additively”. Further, the “type of TTFields-drug interaction, overall effect (cell count and clonogenic effect)” value with OVCAR-3 cells [3] (TTFields 200 kHz, 1 V/cm RMS, 72 h) is recorded as “additive”. Also, in the data set with OVCAR-3 cells [3] (TTFields 200 kHz, 1 V/cm RMS, 72 h, BRCA mutant), the “type of TTFields-drug interaction, cytotoxic effect (cell count)” value is “additively”. Moreover, in the data set with OVCAR-3 cells [3] (TTFields plus drug vs drug alone), the “effect of TTFields on the drug-induced overall effect (cell count x colony formation)” value is recorded as “significantly augmented”. For the same compound, the “effect of TTFields on the drug-induced effect, cell count” value in the data set with OVCAR-3 cells [3] (TTFields plus drug vs drug alone, p<0.0001) was “significantly augmented”. Also, the “sensitivity to drug (cell count dose response)” value with OVCAR-3 cells [3] (drug alone, 72 h, compared among A2780, OVCAR-3, A2780cis) is recorded as “highest sensitivity”.

The values above are taken from patent US20250108213A1, “COMPOSITIONS AND METHODS FOR ENHANCING THE EFFECT OF PLATINUM-BASED SYSTEMIC THERAPY” (NOVOCURE GMBH, priority 2023, published 2025).
